In PMC6804443 (Acta Pharmaceutica Sinica. B, 2019):
One block for each compound: values may come before it.

Legend:
ALDH = format: in vitro ADME; conditions: human, pooled human liver cytosol
OATP1B3 [1] = target: T1, OATP1B3 (Homo sapiens, UniProt Q9NPD5); conditions: IC50, OATP1B3 [X10], mean ± SD (n = 3)
T1 sequence (Q9NPD5 1-702): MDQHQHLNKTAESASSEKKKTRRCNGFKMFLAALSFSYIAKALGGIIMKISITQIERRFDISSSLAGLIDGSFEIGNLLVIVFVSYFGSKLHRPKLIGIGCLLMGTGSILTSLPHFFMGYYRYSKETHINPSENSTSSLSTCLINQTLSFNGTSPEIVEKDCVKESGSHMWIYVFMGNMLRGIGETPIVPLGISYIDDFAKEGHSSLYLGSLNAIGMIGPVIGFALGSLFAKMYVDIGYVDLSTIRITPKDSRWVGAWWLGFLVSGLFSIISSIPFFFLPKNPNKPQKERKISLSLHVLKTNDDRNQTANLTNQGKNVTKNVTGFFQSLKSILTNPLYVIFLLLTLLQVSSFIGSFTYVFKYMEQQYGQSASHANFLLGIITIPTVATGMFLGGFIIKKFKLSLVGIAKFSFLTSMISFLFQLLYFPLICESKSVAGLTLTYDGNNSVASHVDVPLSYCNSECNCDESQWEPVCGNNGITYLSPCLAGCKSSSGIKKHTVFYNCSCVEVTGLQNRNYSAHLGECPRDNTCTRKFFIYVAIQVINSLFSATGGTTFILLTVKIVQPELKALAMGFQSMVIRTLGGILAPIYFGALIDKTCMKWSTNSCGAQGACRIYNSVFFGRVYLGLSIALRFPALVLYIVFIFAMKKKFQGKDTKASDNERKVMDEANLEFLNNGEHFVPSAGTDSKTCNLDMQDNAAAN

OATP1B3 [2] = target: T1, OATP1B3; conditions: antibiotic as perpetrator, salvianolic acid B (X10) as victim; (Cmax × fu-p × R)/IC50
OATP1B3 [3] = target: T1, OATP1B3; test: in vitro
UGT2B15 = target: T2, UGT2B15 (Homo sapiens, UniProt P54855); format: in vitro ADME; conditions: for Inhibition DDI index, UGT2B15: antibiotic as perpetrator, senkyunolide I (X5) as victim, (Cmax × fu-p × R)/IC50
T2 sequence (P54855 24-530): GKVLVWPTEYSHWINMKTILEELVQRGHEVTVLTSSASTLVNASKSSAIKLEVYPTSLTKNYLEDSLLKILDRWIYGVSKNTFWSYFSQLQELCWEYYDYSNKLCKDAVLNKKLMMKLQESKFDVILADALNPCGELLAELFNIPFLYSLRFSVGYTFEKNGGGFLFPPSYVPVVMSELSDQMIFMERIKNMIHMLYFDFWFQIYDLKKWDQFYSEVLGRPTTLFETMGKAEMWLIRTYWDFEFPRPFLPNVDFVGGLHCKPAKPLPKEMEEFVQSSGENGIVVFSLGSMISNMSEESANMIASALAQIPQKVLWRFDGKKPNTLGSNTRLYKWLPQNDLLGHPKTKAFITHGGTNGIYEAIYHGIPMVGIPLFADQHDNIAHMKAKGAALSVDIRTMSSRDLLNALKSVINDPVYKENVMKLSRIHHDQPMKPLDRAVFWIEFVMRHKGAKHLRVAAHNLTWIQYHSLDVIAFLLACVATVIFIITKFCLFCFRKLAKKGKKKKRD

OAT2 = target: T3, OAT2 (Homo sapiens, UniProt Q9Y694); test: OAT2 inhibition by antibiotics, transfected HEK293 cells, tanshinol as substrate; format: in vitro ADME
T3 sequence (Q9Y694 1-546 isoform Q9Y694-2): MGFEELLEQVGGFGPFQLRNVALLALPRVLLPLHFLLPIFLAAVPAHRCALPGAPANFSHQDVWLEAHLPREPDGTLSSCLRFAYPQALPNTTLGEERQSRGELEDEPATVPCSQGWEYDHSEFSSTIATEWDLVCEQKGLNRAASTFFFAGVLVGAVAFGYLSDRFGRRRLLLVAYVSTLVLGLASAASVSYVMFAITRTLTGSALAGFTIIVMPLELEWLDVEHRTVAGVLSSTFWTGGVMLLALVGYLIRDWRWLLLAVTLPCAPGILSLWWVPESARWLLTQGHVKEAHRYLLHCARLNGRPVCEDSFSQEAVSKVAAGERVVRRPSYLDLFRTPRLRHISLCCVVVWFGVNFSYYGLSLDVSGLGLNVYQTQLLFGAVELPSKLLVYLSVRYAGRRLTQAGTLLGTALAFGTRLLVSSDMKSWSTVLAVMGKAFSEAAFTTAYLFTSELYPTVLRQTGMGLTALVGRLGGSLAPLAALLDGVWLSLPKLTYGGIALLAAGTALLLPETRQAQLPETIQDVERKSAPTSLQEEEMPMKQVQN

OAT1 = target: T4, OAT1 (Homo sapiens, UniProt Q4U2R8); test: OAT1 inhibition by antibiotics, transfected HEK293 cells, tanshinol as substrate
T4 sequence (Q4U2R8 1-563): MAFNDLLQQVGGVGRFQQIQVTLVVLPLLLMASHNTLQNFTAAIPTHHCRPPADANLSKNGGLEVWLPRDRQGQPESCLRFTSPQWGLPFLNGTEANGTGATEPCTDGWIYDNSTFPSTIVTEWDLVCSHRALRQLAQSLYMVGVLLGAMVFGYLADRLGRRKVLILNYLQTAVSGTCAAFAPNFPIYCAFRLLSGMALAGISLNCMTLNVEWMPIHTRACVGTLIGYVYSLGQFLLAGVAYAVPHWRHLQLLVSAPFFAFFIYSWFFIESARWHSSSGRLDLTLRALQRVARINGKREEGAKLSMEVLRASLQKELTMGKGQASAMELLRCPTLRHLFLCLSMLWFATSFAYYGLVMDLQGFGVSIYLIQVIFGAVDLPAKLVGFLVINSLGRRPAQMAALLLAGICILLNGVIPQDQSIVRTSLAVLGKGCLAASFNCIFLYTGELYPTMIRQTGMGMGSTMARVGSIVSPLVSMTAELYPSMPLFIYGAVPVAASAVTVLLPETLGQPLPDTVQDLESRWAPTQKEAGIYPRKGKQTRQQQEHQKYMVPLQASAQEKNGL

[4] = antibiotic as perpetrator, tanshinol (X8) as victim, (Cmax × fu-p × R)/IC50

IC50 (ALDH): 120 ± 30 µM
inhibition at 1000 μmol/L (ALDH): 56 to 88%
Compound: C[C@@H](O)[C@H]1C(=O)N2C(C(=O)O)=C(SCCN=CN)C[C@H]12 [A1, imipenem]

IC50 (ALDH): 164 ± 39 µM
inhibition at 1000 μmol/L (ALDH): 56 to 88%
Compound: C[C@@H](O)[C@H]1C(=O)N2C(C(=O)O)=C(S[C@@H]3CN[C@H](C(=O)N(C)C)C3)[C@H](C)[C@H]12 [A2, meropenem]

IC50 (OATP1B3 [1]): 201 ± 48 µM
Inhibition DDI index, OATP1B3 (OATP1B3 [2]): 0.68
inhibition at 1000 μmol/L (OATP1B3 [3]): 64 to 88%
Compound: CO/N=C(\C(=O)N[C@@H]1C(=O)N2C(C(=O)O)=C(CSc3nc(=O)c(=O)[nH]n3C)CS[C@H]12)c1csc(N)n1 [A6, ceftriaxone]

IC50 (ALDH): 1030 ± 155 µM
inhibition at 5000 μmol/L (ALDH): 56 to 88%
Compound: CC(C)(O/N=C(\C(=O)N[C@@H]1C(=O)N2C(C(=O)[O-])=C(C[n+]3ccccc3)CS[C@H]12)c1csc(N)n1)C(=O)O [A7, ceftazidime]

IC50 (UGT2B15): 971 ± 130 µM
Inhibition DDI index, UGT2B15 (UGT2B15): 0.12
inhibition at 1000 μmol/L (UGT2B15; human, cDNA-expressed UGT2B15): 60 to 88%
IC50 (OATP1B3 [1]): 27 ± 9 µM
Inhibition DDI index, OATP1B3 (OATP1B3 [2]): 1.72–4.43
inhibition at 1000 μmol/L (OATP1B3 [3]): 64 to 88%
Compound: CCN1CCN(C(=O)N[C@@H](C(=O)N[C@@H]2C(=O)N3C(C(=O)O)=C(CSc4nnnn4C)CS[C@H]23)c2ccc(O)cc2)C(=O)C1=O [A8, cefoperazone]

IC50 (OATP1B3 [1]): 68 ± 20 µM
Inhibition DDI index, OATP1B3 (OATP1B3 [2]): 1.81–2.14
inhibition at 1000 μmol/L (OATP1B3 [3]): 64 to 88%
Compound: CO/N=C(\C(=O)N[C@@H]1C(=O)N2C(C(=O)O)=C(COC(C)=O)CS[C@H]12)c1csc(N)n1 [A9, cefotaxime]

IC50 (UGT2B15): 797 ± 142 µM
Inhibition DDI index, UGT2B15 (UGT2B15): 0.56
inhibition at 5000 μmol/L (UGT2B15; human, cDNA-expressed UGT2B15): 60 to 88%
IC50 (OAT2): 1210 ± 434 µM
inhibition at 5000 µM (OAT2; HEK293, read-out: Inhibition of OAT2): 60 to 84%
Inhibition DDI index, OAT2 (OAT2; [4]): 0.37
IC50 (OAT1): 591 ± 154 µM
Inhibition DDI index, OAT1 (OAT1; [4]): 0.75
inhibition at 5000 μmol/L (OAT1; human): 63 to 88%
Compound: CCN1CCN(C(=O)N[C@@H](C(=O)N[C@@H]2C(=O)N3[C@@H]2SC(C)(C)[C@@H]3C(=O)O)c2ccccc2)C(=O)C1=O [A13, piperacillin]

IC50 (ALDH): 308 ± 68 µM
IC50 (OATP1B3 [1]): 56 ± 21 µM
inhibition at 5000 μmol/L (OATP1B3 [3]): > 90%
Compound: CC1(C)S[C@@H]2[C@H](NC(=O)Cc3ccccc3)C(=O)N2[C@H]1C(=O)O [A15, penicillin G]

IC50 (ALDH): 2080 ± 283 µM
inhibition at 5000 μmol/L (ALDH): 56 to 88%
IC50 (OATP1B3 [1]): 42 ± 18 µM
Inhibition DDI index, OATP1B3 (OATP1B3 [2]): 8.55
inhibition at 5000 μmol/L (OATP1B3 [3]): > 90%
Compound: CC1(C)S[C@@H]2[C@H](NC(=O)[C@H](N)c3ccccc3)C(=O)N2[C@H]1C(=O)O [A16, ampicillin]
